The values below come from ChEMBL document CHEMBL2007661, “Compounds: GSK PKIS; Assays: UNC Frye lab” (2012).

Several values for one entry are separate records, joined by “and”; a condition that tells them apart may be missing. Equal values may be shown once.

Test [1] addresses T1, Serine/threonine-protein kinase TBK1 (Homo sapiens) (UniProt Q9UHD2).
T1 sequence (whole entry): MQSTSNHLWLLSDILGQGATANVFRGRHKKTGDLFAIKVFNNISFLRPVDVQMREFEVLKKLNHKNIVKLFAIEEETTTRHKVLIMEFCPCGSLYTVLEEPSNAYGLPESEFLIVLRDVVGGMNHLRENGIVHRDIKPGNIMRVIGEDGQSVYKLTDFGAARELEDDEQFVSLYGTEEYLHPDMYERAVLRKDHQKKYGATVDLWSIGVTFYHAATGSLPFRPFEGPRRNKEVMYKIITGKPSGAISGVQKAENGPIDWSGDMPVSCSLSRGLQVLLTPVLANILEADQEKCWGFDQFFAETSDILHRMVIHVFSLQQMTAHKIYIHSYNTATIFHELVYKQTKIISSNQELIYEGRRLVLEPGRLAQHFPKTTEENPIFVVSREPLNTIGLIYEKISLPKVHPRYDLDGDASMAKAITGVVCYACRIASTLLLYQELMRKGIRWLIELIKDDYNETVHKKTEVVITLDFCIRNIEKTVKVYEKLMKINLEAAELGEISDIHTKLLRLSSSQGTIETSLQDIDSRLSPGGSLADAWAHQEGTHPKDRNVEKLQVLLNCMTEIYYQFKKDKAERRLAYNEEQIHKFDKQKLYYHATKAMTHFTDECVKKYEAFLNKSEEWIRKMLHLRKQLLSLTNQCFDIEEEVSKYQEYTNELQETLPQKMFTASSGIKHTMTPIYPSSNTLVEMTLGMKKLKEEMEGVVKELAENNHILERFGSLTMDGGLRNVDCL
The following applies: at 1 µM.

The target in test [2] is T2, Inhibitor of nuclear factor kappa-B kinase subunit alpha (Homo sapiens) (UniProt O15111).
T2 sequence (whole entry): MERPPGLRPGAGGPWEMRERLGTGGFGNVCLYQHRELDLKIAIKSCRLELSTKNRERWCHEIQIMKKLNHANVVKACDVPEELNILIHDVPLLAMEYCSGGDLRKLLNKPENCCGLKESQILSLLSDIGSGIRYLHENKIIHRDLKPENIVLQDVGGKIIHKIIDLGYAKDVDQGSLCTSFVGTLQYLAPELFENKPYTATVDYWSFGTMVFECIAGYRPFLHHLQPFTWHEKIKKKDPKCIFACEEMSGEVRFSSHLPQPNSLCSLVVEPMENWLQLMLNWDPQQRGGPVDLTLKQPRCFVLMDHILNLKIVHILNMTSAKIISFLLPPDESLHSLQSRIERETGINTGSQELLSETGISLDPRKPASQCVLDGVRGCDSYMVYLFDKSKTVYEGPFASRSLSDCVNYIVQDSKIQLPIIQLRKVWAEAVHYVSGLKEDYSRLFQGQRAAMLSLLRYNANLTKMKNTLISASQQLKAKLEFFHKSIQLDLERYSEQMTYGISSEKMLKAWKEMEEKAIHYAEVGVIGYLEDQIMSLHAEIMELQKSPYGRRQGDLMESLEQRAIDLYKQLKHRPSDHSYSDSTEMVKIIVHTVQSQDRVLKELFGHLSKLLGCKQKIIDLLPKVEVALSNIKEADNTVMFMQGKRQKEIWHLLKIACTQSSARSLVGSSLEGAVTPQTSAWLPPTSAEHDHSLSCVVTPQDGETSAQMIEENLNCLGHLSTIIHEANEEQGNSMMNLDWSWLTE
To be noted: at 1 µM.

For orientation: inhibition means the relative decrease from the control value, in per cent. On to `CCn1c(-c2nonc2N)nc2c(C#CC(C)(C)O)nc(OC[C@@H](N)c3ccccc3)cc21`, for which the inhibition in test [1] was 6% and 7%; in test [2] it was 13% and 12%.

`CCn1c(-c2nonc2N)nc2ccc(F)cc21`: the inhibition in test [1] was 2% and 1%; in test [2], 2%.

Regarding `COc1cc2ncn(-c3cc(OCc4ccccc4Cl)c(C(N)=O)s3)c2cc1OC`, the inhibition in test [1] was 56% and 50%; in test [2], -1%.

Turning to `Cc1cc(O)cc(C)c1/C=C/c1cncc(C(=O)OC(C)(C)C)c1`, the inhibition in test [1] was 0% and -2%; in test [2], -1% and 0%.

With `Cc1ccc2c(-c3ccnc(Nc4cccc(C(F)(F)F)c4)n3)c(-c3ccccc3)nn2n1`, the inhibition in test [1] was -1% and 1%; in test [2] it was 6% and 4%.

With `COc1cc2ncnc(Nc3ccc(C)c(O)c3)c2cc1OC`, the inhibition in test [1] is 3% and 1%; in test [2], 0% and 1%.

With `COc1cc(C=NNc2ncnc3c2cnn3Cc2ccccc2)ccc1O`, the inhibition in test [1] was 9% and 14%; in test [2], 4%.

As to `COc1cc(Nc2ncc3c(C)nc(-c4cccc(Oc5ccccc5)c4)n3n2)cc(OC)c1OC`, the inhibition was 75% and 71% in test [1]; 1% and 2% in test [2].

Regarding `CNC(=O)c1cccc(C#Cc2cncnc2Nc2ccc(OCc3cccc(F)c3)c(Cl)c2)c1`, the inhibition was 6% and 3% in test [1]; -1% and 17% in test [2].

For the compound `[O-][S+]1CCN(Cc2ccc(-c3ccc4ncnc(Nc5ccc(OCc6ccccc6)c(Cl)c5)c4c3)o2)CC1`, the inhibition was -4% and -6% in test [1]; 0% and -1% in test [2].

As to `CCc1nccc2c1nc(-c1nonc1N)n2CC`, the inhibition in test [1] was -2% and 1%; in test [2], 12% and 13%.

Turning to `COc1ccccc1-c1cc(/C=C2\C(=O)Nc3ncc(Br)cc32)cc(Br)c1O`, the inhibition in test [1] is 15% and 7%; in test [2], 0% and 4%.

`CCS(=O)(=O)c1ccc(OC)c(Nc2ncc(-c3cccc(-c4ccccc4F)c3)o2)c1`: the inhibition in test [1] was 13%; in test [2] it was -3% and 14%.

With `Cc1ccc(C(=O)NC(C)C)cc1-c1ccc(C(=O)NCC2CC2)cc1`, the inhibition was -1% and -2% in test [1]; 0% and -2% in test [2].

`Cn1c(-c2nonc2N)nc2cnccc21`: the inhibition in test [1] is -4% and -2%; in test [2], 27% and 23%.

With `COc1cc(/C=N/Nc2ncnc3[nH]ncc23)ccc1O`, the inhibition is 31% and 33% in test [1]; 6% in test [2].

For the compound `CN1CCC(n2cnc(-c3ccc(F)cc3)c2-c2ccnc(NCCO)n2)CC1`, the inhibition is -6% and -9% in test [1]; 0% and 1% in test [2].

With `FC(F)(F)c1ccc(-c2nn3ncccc3c2-c2ccnc(Nc3ccc4c(c3)OCCO4)n2)cc1`, the inhibition in test [1] was -5% and -7%; in test [2] it was 1% and 0%.

For `Fc1ccc(-c2nc3n(c2-c2ccncc2)CCS3)cc1`, the inhibition in test [1] was -4% and 3%; in test [2], 11% and -1%.

`COc1cc2c(cc1Nc1nc(Nc3cccc(F)c3C(N)=O)c3cc[nH]c3n1)N(C(=O)CN1CCN(C(C)C)CC1)CC2`: the inhibition is -2% and -6% in test [1]; 4% and 5% in test [2].

As to `COC(=O)Nc1nc2ccc(Sc3ccc(NC(=O)Nc4cc(C(F)(F)F)ccc4F)cc3)cc2[nH]1`, the inhibition in test [1] was -3%; in test [2] it was 3%.

As to `CCOc1ccc2c(-c3ccnc(Nc4cc(OC)cc(C(F)(F)F)c4)n3)cnn2n1`, the inhibition was 51% and 43% in test [1]; 4% and -1% in test [2].

In the case of `COc1c(C(N)=O)cc(-c2ccc(Cl)cc2)cc1-c1ccc(S(N)(=O)=O)cc1`, the inhibition in test [1] is 0% and 1%; in test [2], 0% and -2%.

In the case of `O=C(Nc1n[nH]c2cc(-c3cc(F)ccc3F)ccc12)C1CC1`, the inhibition in test [1] was -4% and -2%; in test [2], 2%.

Take `CN1CCN(C(=O)c2ccc(NC(=O)Nc3ccc(N(C)c4ccnc(Nc5ccc(CS(C)(=O)=O)cc5)n4)cc3)cc2)CC1`: the inhibition in test [1] was 14% and 13%; in test [2], 1% and 2%.

With `O=C1NC(=O)C(c2cccc(Cl)c2)=C1Nc1ccc(Cl)c(C(=O)O)c1`, the inhibition in test [1] is 19% and 18%; in test [2] it was -6% and 2%.
